Data on 1 molecule can be found in ChEMBL document CHEMBL4130624, “Optimization of 1,4-Oxazine β-Secretase 1 (BACE1) Inhibitors Toward a Clinical Candidate” (J Med Chem, 2018).

A short description of data set [1]: Volume of distribution at steady state in Sprague-Dawley rat at 2.5 mg/kg, iv administered as bolus dose by LC-MS/MS analysis. The format is ADME, organism-based. To be noted: in vivo, read-out: Vdss.
A short description of data set [2]: Oral bioavailability in Swiss mouse at 10 mg/kg administered as bolus dose by LC-MS/MS analysis. To be noted: in vivo. Type of data set: ADME, organism-based.
In another data set the test system is Canis familiaris. The data set can be described thus: Toxicity in Beagle dog assessed as drug tolerability up to 20 mg/kg, po. The conditions noted are these: in vivo. Type of data set: organism-based, Canis lupus familiaris.
Data set [3] in a line: Cmax in Beagle dog at 10 mg/kg, po administered as bolus dose by LC-MS/MS analysis. Type of data set: ADME, organism-based, Canis lupus familiaris. Also on record: dose 10 mg/kg, route oral. To be noted: in vivo.
Data set [4] in a line: Ratio of drug level in liver to plasma of Sprague-Dawley rat at 10 mg/kg, po. The format is ADME, organism-based.
For the next data set, the system named is Rattus norvegicus. The data set can be described thus: Toxicity in Sprague-Dawley rat assessed as induction of pigmentation at 225 mg/kg/day, po administered via gavage for 1 month. The format is organism-based. The conditions noted are these: in vivo.
A further data set deals with Mus musculus. The data set can be described thus: Systemic clearance in Swiss mouse at 2.5 mg/kg, iv administered as bolus dose by LC-MS/MS analysis relative to liver blood flow. The conditions noted are these: in vivo. The format is ADME, organism-based.
The next data set concerns Cavia porcellus. The data set can be described thus: Cardiotoxicity in anesthetized guinea pigs assessed as drug level causing QTcB prolongation dosed up to 10 mg/kg, iv administered over a period of 5 min at 15 min interval by ECG analysis. The format is toxicity, organism-based. The conditions noted are these: guinea pig, in vivo.
Data set [5] in a line: Half life in Sprague-Dawley rat at 2.5 mg/kg, iv administered as bolus dose by LC-MS/MS analysis. To be noted: in vivo. Type of data set: ADME, organism-based.

SMILES strings stand for the structures.

As usually defined, the bioavailability is dose-corrected exposure relative to a reference, in per cent. Read a low bioavailability as poor availability. The term Cmax denotes the maximum level reached in the sampled fluid or tissue. One may read the Kp as tissue or fluid exposure divided by exposure in the circulation. Broadly, the LOAEL is the lowest dose or exposure tested at which an adverse effect was seen. A word on the NOAEL: it is the highest dose or exposure tested at which no adverse effect was seen. As a reminder, the half-life is how long it takes for the measured level to halve. Read a high half-life as slow decline. Regarding `C[C@]1(c2cc(NC(=O)c3ccc(C#N)cn3)ccc2F)N=C(N)CO[C@H]1C(F)(F)F`, in data set [1], the Vd worked out at 11 L/kg. Also, the bioavailability in data set [2] worked out at 45%. Further, the Activity entry with Canis familiaris was “Non-Toxic”. The same molecule came in with a Cmax in data set [3] of 1090 nM. In addition, the Kp in data set [4] was 31. Further, in the data set with Rattus norvegicus, the Activity result was “Non-Toxic”. In the data set on Mus musculus, this molecule showed a CL of 50%. In the data set with Cavia porcellus, the LOAEL was 11500 ng/mL, the NOAEL stood at 5235 ng/mL, the fLOAEL worked out at 10.1 µM and the fNOAEL came to 4.6 µM. Besides, in [5], the half-life is 3.9 h.
